Reference: patent US9630977B2, “Cephalosporin derivatives and pharmaceutical compositions thereof” (Legochem Biosciences, Inc., priority 2011, dated 2017)
≈ marks a conversion by molar mass, not a printed value. Like-named read-outs stand apart in the source and are kept apart here.

What was measured:
Test in all cases: In vitro antibacterial activity test (broth microdilution)
Type in all cases: cell-based
[1] = test system: A. calcoaceticus ATCC15473
Procedure: (§1) To evaluate antibacterial activity of each of the compounds of Examples 1 to 68, in vitro antibacterial activity test was performed.
(§2) The in vitro antibacterial activity was evaluated by measuring MIC90 (ug/mL) of each of the compounds of Examples 1 to 68, which is defined as the lowest concentration of an antibiotic that will inhibit the visible growth of 90% of microorganisms after incubation as compared with a control group to which the antibiotic is not treated. MIC90 values were measured by the broth microdilution method developed by the Clinical and Laboratory Standards Institute (CLSI) (see CLSI M7-A5, Methods for Dilution Antimicrobial Susceptibility Test for Bacteria that Grow Aerobically-Fifth Edition (2000): CLSI, Villanova, Pa.).
(§3) In vitro antibacterial activity was measured with respect to the following 19 clinical isolates: M. catarrhalis; P. aeruginosa (5 strains); K. pneumoniae (6 strains); A. baumannii (3 strains); E. coli (2 strains); A. calcoaceticus; and E. cloacae.
(§4) Test compounds each (the cephalosporin derivative compounds prepared in Examples 1 to 68) were dissolved in DMSO at the concentration of 10,240 ug/mL, were diluted by two fold with DMSO, and then were diluted by twenty fold with sterilized distilled water. The final concentration in the antibacterial activity test was in the range of […] to 128 ug/mL, and the final concentration of DMSO used as an adjuvant was 2.5% (V/V).

P. aeruginosa 37 = test system: P. aeruginosa 37
Procedure: as §1, §2, §3, §4

P. aeruginosa 40 = test system: P. aeruginosa 40
Procedure: as §1, §2, §3, §4

A. baumannii 49 = test system: A. baumannii 49
Procedure: as §1, §2, §3, §4

A. baumannii 46 = test system: A. baumannii 46
Procedure: as §1, §2, §3, §4

E. coli β4 = test system: E. coli β4
Procedure: as §1, §2, §3, §4

K. pneumoniae β14 = test system: K. pneumoniae β14
Procedure: as §1, §2, §3, §4

E. coli AG100 = test system: E. coli AG100
Procedure: as §1, §2, §3, §4

P. aeruginosa 6065Y = test system: P. aeruginosa 6065Y
Procedure: as §1, §2, §3, §4

E. cloacae β19 = test system: E. cloacae β19
Procedure: as §1, §2, §3, §4

A. baumannii 52 = test system: A. baumannii 52
Procedure: as §1, §2, §3, §4

K. pneumoniae 2011E = test system: K. pneumoniae 2011E
Procedure: as §1, §2, §3, §4

P. aeruginosa 43 = conditions: Pseudomonas aeruginosa
Procedure: as §1, §2, §3, §4

P. aeruginosa 1912E = test system: P. aeruginosa 1912E
Procedure: as §1, §2, §3, §4

[2] = Acinetobacter calcoaceticus, A. calcoaceticus ATCC15473, read-out: MIC90
[3] = Pseudomonas aeruginosa, 37, P. aeruginosa 37, read-out: MIC90
[4] = Pseudomonas aeruginosa, 40, P. aeruginosa 40, read-out: MIC90
[5] = Acinetobacter baumannii, A. baumannii 49, read-out: MIC90
[6] = Acinetobacter baumannii, A. baumannii 46, read-out: MIC90
[7] = Escherichia coli, read-out: MIC90
[8] = Klebsiella pneumoniae, read-out: MIC90
[9] = Escherichia coli, AG100, E. coli AG100, read-out: MIC90
[10] = Pseudomonas aeruginosa, read-out: MIC90
[11] = Enterobacter cloacae, read-out: MIC90
[12] = Acinetobacter baumannii, A. baumannii 52, read-out: MIC90
[13] = Klebsiella pneumoniae, 2011E, K. pneumoniae 2011E, read-out: MIC90
[14] = Pseudomonas aeruginosa, 1912E, read-out: MIC90
[15] = Acinetobacter calcoaceticus, ATCC15473, A. calcoaceticus ATCC15473
[16] = Pseudomonas aeruginosa, 37, P. aeruginosa 37
[17] = Acinetobacter baumannii, 49, A. baumannii 49
[18] = Acinetobacter baumannii, 46, A. baumannii 46

Row | MIC90 [1, 2] [µg/mL] | MIC90 (P. aeruginosa 37; [3]) [µg/mL] | MIC90 (P. aeruginosa 40; [4]) [µg/mL] | MIC90 (A. baumannii 49; [5]) [µg/mL] | MIC90 (A. baumannii 46; [6]) [µg/mL] | MIC90 (E. coli β4; [7]) [µg/mL] | MIC90 (K. pneumoniae β14; [8]) [µg/mL] | MIC90 (E. coli AG100; [9]) [µg/mL] | MIC90 (P. aeruginosa 6065Y; [10]) [µg/mL] | MIC90 (E. cloacae β19; [11]) [µg/mL] | MIC90 (A. baumannii 52; [12]) [µg/mL] | MIC90 (K. pneumoniae 2011E; [13]) [µg/mL] | MIC90 (P. aeruginosa 1912E; [14]) [µg/mL] | SMILES | MIC90 [1, 15] [µg/mL] | MIC90 (P. aeruginosa 37; [16]) [µg/mL] | MIC90 (P. aeruginosa 40; Pseudomonas aeruginosa, 40) [µg/mL] | MIC90 (A. baumannii 49; [17]) [µg/mL] | MIC90 (A. baumannii 46; [18]) [µg/mL] | MIC90 (E. coli β4; Escherichia coli) [µg/mL] | MIC90 (K. pneumoniae β14; Klebsiella pneumoniae) [µg/mL] | also measured
1 | 4 (≈ 5.29 µM) | 2 (≈ 2.64 µM) | 4 (≈ 5.29 µM) | 32 (≈ 42.3 µM) | 8 (≈ 10.6 µM) | 2 (≈ 2.64 µM) | 16 (≈ 21.1 µM) | 2 (≈ 2.64 µM) | 8 (≈ 10.6 µM) | 8 (≈ 10.6 µM) | 32 (≈ 42.3 µM) | 8 (≈ 10.6 µM) | 2 (≈ 2.64 µM) | CN(CCNc1c[n+](CC2=C(C(=O)[O-])N3C(=O)[C@@H](NC(=O)/C(=N\OC(C)(C)C(=O)O)c4csc(N)n4)C3SC2)cnc1N)Cc1ccc(O)c(O)c1 (stereo partly shown) [Compound 29] |  |  |  |  |  |  |  | MIC90 (P. aeruginosa 43; P. aeruginosa 43, read-out: MIC90): 4 µg/mL (≈ 5.29 µM)
2 | 1 (≈ 1.61 µM) | 128 (≈ 207 µM) | 4 (≈ 6.46 µM) | 128 (≈ 207 µM) | 8 (≈ 12.9 µM) | 8 (≈ 12.9 µM) | 32 (≈ 51.6 µM) | 0.5 (≈ 0.807 µM) | 16 (≈ 25.8 µM) | 128 (≈ 207 µM) | 128 (≈ 207 µM) | 1 (≈ 1.61 µM) | 4 (≈ 6.46 µM) | CC(=O)Nc1c[n+](CC2=C(C(=O)[O-])N3C(=O)[C@@H](NC(=O)/C(=N\OC(C)(C)C(=O)O)c4csc(N)n4)C3SC2)cnc1N (stereo partly shown) [Compound 68] |  |  |  |  |  |  |  | 
3 |  |  |  |  |  |  |  |  |  |  |  |  |  | CC(C)(O/N=C(\C(=O)N[C@@H]1C(=O)N2C(C(=O)[O-])=C(C[n+]3cnc(N)c(NCCNC(=N)N)c3)CSC12)c1csc(N)n1)C(=O)O (stereo partly shown) [Compound 40] | 0.25 (≈ 0.377 µM) | 8 (≈ 12.1 µM) | 8 (≈ 12.1 µM) | 128 (≈ 193 µM) | 2 (≈ 3.02 µM) | 8 (≈ 12.1 µM) | 8 (≈ 12.1 µM) | MIC90 (E. coli AG100; Escherichia coli, AG100): 4 µg/mL (≈ 6.04 µM); MIC90 (P. aeruginosa 6065Y; Pseudomonas aeruginosa, 6065Y): 16 µg/mL (≈ 24.1 µM); MIC90 (E. cloacae β19; Enterobacter cloacae): 32 µg/mL (≈ 48.3 µM); MIC90 (A. baumannii 52; Acinetobacter baumannii, 52): 128 µg/mL (≈ 193 µM); MIC90 (K. pneumoniae 2011E; Klebsiella pneumoniae, 2011E): 16 µg/mL (≈ 24.1 µM); MIC90 (P. aeruginosa 43; 43): 32 µg/mL (≈ 48.3 µM); MIC90 (P. aeruginosa 1912E; Pseudomonas aeruginosa, 1912E): 4 µg/mL (≈ 6.04 µM)
4 |  |  |  |  |  |  |  |  |  |  |  |  |  | CC(C)(O/N=C(\C(=O)N[C@@H]1C(=O)N2C(C(=O)[O-])=C(C[n+]3cnc(N)c(NC(=O)CCN)c3)CSC12)c1csc(N)n1)C(=O)O (stereo partly shown) [Compound 48] | 0.5 (≈ 0.771 µM) | 64 (≈ 98.7 µM) | 8 (≈ 12.3 µM) | 128 (≈ 197 µM) | 8 (≈ 12.3 µM) | 2 (≈ 3.08 µM) | 16 (≈ 24.7 µM) | MIC90 (E. coli AG100; Escherichia coli, AG100): 2 µg/mL (≈ 3.08 µM); MIC90 (P. aeruginosa 6065Y; Pseudomonas aeruginosa, 6065Y): 16 µg/mL (≈ 24.7 µM); MIC90 (E. cloacae β19; Enterobacter cloacae): 128 µg/mL (≈ 197 µM); MIC90 (A. baumannii 52; Acinetobacter baumannii, 52): 128 µg/mL (≈ 197 µM); MIC90 (K. pneumoniae 2011E; Klebsiella pneumoniae, 2011E): 4 µg/mL (≈ 6.17 µM); MIC90 (P. aeruginosa 1912E; Pseudomonas aeruginosa, 1912E): 8 µg/mL (≈ 12.3 µM)
5 |  |  |  |  |  |  |  |  |  |  |  |  |  | CC(C)(O/N=C(\C(=O)N[C@@H]1C(=O)N2C(C(=O)[O-])=C(C[n+]3cnc(N)c(NCCN)c3)CSC12)c1csc(N)n1)C(=O)O (stereo partly shown) [Compound 37] | 1 (≈ 1.61 µM) | 16 (≈ 25.8 µM) | 4 (≈ 6.44 µM) | 128 (≈ 206 µM) | 4 (≈ 6.44 µM) | 4 (≈ 6.44 µM) | 16 (≈ 25.8 µM) | MIC90 (E. coli AG100; Escherichia coli, AG100): 4 µg/mL (≈ 6.44 µM); MIC90 (P. aeruginosa 6065Y; Pseudomonas aeruginosa, 6065Y): 8 µg/mL (≈ 12.9 µM); MIC90 (E. cloacae β19; Enterobacter cloacae): 16 µg/mL (≈ 25.8 µM); MIC90 (A. baumannii 52; Acinetobacter baumannii, 52): 64 µg/mL (≈ 103 µM); MIC90 (K. pneumoniae 2011E; Klebsiella pneumoniae, 2011E): 8 µg/mL (≈ 12.9 µM); MIC90 (P. aeruginosa 1912E; Pseudomonas aeruginosa, 1912E): 4 µg/mL (≈ 6.44 µM)
6 | 16 (≈ 24.1 µM) | > 128 | 64 (≈ 96.4 µM) | > 128 | 128 (≈ 193 µM) | 16 (≈ 24.1 µM) | 64 (≈ 96.4 µM) | 8 (≈ 12.1 µM) | 128 (≈ 193 µM) | > 128 | > 128 | 4 (≈ 6.03 µM) | 32 (≈ 48.2 µM) | CC(C)(O/N=C(\C(=O)N[C@@H]1C(=O)N2C(C(=O)[O-])=C(C[n+]3cnc(N)c(NCCCC(=O)O)c3)CSC12)c1csc(N)n1)C(=O)O (stereo partly shown) [Compound 38] |  |  |  |  |  |  |  | 
7 |  |  |  |  |  |  |  |  |  |  |  |  |  | CC(C)(O/N=C(\C(=O)N[C@@H]1C(=O)N2C(C(=O)[O-])=C(C[n+]3cnc(N)c(NCCN)c3)CSC12)c1csc(N)n1)C(=O)O (stereo partly shown) [Compound 49] |  |  |  |  |  |  |  | MIC90 ([1]; A. calcoaceticus ATCC15473): 2 µg/mL (≈ 3.22 µM); MIC90 (P. aeruginosa 37; P. aeruginosa 37): 8 µg/mL (≈ 12.9 µM); MIC90 (P. aeruginosa 40; P. aeruginosa 40): 4 µg/mL (≈ 6.44 µM); MIC90 (A. baumannii 49; A. baumannii 49): 64 µg/mL (≈ 103 µM); MIC90 (A. baumannii 46; A. baumannii 46): 8 µg/mL (≈ 12.9 µM); MIC90 (E. coli β4): 8 µg/mL (≈ 12.9 µM); MIC90 (K. pneumoniae β14): 32 µg/mL (≈ 51.6 µM); MIC90 (E. coli AG100; E. coli AG100): 4 µg/mL (≈ 6.44 µM); MIC90 (P. aeruginosa 6065Y): 16 µg/mL (≈ 25.8 µM); MIC90 (E. cloacae β19): 32 µg/mL (≈ 51.6 µM); MIC90 (A. baumannii 52; A. baumannii 52): 64 µg/mL (≈ 103 µM); MIC90 (K. pneumoniae 2011E; K. pneumoniae 2011E): 8 µg/mL (≈ 12.9 µM); MIC90 (P. aeruginosa 43; 43): > 128 µg/mL; MIC90 (P. aeruginosa 1912E): 2 µg/mL (≈ 3.22 µM)
